Reference: PubChem BioAssay AID1963864 (Molecular Pharmacology Branch, DTP, NCI, 2024)

Tested on: KRAS PDC multicell spheroid viability
Experiment: Anticancer human tumor 521955-158-R6-J3-PDC patient-derived pancreatic carcinoma cell line growth inhibition [KRAS2]
Conditions: for IC50: curve of first compound; for viability, T/C: stronger effect = lower value; active = viability on the fitted dose curve at most 10% of control; inactive = the rest
Procedure, shortened: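 Combination screen of spheroid viability in tumor-cell co-cultures with endothelial (HUVEC) and mesenchymal stem cell stroma. Each agent was tested in half-log dilutions, topping at clinical Cmax or at 10 microM without a known Cmax.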

[1] = second compound 0.0316 µM, first compound 0.000316 µM
[2] = second compound 0.0316 µM, first compound 0.001 µM
[3] = second compound 0.0316 µM, first compound 0.00316 µM
[4] = second compound 0.0316 µM, first compound 0.01 µM
[5] = second compound 0.0316 µM, first compound 0.0316 µM
[6] = second compound 0.1 µM, first compound 0.000316 µM
[7] = second compound 0.1 µM, first compound 0.001 µM
[8] = second compound 0.1 µM, first compound 0.00316 µM
[9] = second compound 0.1 µM, first compound 0.01 µM
[10] = second compound 0.1 µM, first compound 0.0316 µM
[11] = second compound 0.316 µM, first compound 0.000316 µM
[12] = second compound 0.316 µM, first compound 0.001 µM
[13] = second compound 0.316 µM, first compound 0.00316 µM
[14] = second compound 0.316 µM, first compound 0.01 µM
[15] = second compound 0.316 µM, first compound 0.0316 µM
[16] = second compound 1 µM, first compound 0.000316 µM
[17] = second compound 1 µM, first compound 0.001 µM
[18] = second compound 1 µM, first compound 0.00316 µM
[19] = second compound 1 µM, first compound 0.01 µM
[20] = second compound 1 µM, first compound 0.0316 µM
[21] = second compound 3.16 µM, first compound 0.000316 µM
[22] = second compound 3.16 µM, first compound 0.001 µM
[23] = second compound 3.16 µM, first compound 0.00316 µM
[24] = second compound 3.16 µM, first compound 0.01 µM
[25] = second compound 3.16 µM, first compound 0.0316 µM
[26] = second compound 0.0316 µM, first compound 0.1 µM
[27] = second compound 0.1 µM, first compound 0.1 µM
[28] = second compound 0.316 µM, first compound 0.1 µM
[29] = second compound 1 µM, first compound 0.1 µM
[30] = second compound 3.16 µM, first compound 0.1 µM
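Also: drug exposure lasted seven days.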
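For viability, T/C in this document: 100% = DMSO vehicle wells and lower means fewer viable cells.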

CC(=O)Nc1cccc(-n2c(=O)n(C3CC3)c(=O)c3c(Nc4ccc(I)cc4F)n(C)c(=O)c(C)c32)c1 + C=CC(=O)N1CCN(c2nc(OCC3CCCN3C)nc3c2CCN(c2cccc4cccc(C)c24)C3)CC1CC#N
> 31.6 nM: IC50 (second compound 0.0316 µM)
21.2 nM: IC50 (second compound 0.316 µM)
28.4 nM: IC50 (second compound 0.1 µM)
inactive: viability, T/C (second compound 0.0316 µM, first compound 0.0001 µM) 109% | viability, T/C [1] 109% | viability, T/C [2] 108% | viability, T/C [3] 83.2% | viability, T/C [4] 83.9% | viability, T/C [5] 52.8% | viability, T/C (second compound 0.1 µM, first compound 0.0001 µM) 93.1% | viability, T/C [6] 111% | viability, T/C [7] 100% | viability, T/C [8] 81.4% | viability, T/C [9] 76.8% | viability, T/C [10] 46.8% | viability, T/C (second compound 0.316 µM, first compound 0.0001 µM) 89.4% | viability, T/C [11] 96% | viability, T/C [12] 101% | viability, T/C [13] 83.9% | viability, T/C [14] 66.8% | viability, T/C [15] 41.2% | viability, T/C (second compound 1 µM, first compound 0.0001 µM) 72.4% | viability, T/C [16] 72.4% | viability, T/C [17] 87.1% | viability, T/C [18] 65.4% | viability, T/C [19] 50.9% | viability, T/C [20] 38% | viability, T/C (second compound 3.16 µM, first compound 0.0001 µM) 40.3% | viability, T/C [21] 52.7% | viability, T/C [22] 24.4% | viability, T/C [23] 29.1% | viability, T/C [24] 2.14%
9.67 nM: IC50 (second compound 1 µM)
active: viability, T/C [25] 8.79%
< 0.1 nM: IC50 (second compound 3.16 µM)

CN(C)C/C=C/C(=O)Nc1cc2c(Nc3ccc(F)c(Cl)c3)ncnc2cc1O[C@H]1CCOC1 + C=CC(=O)N1CCN(c2nc(OCC3CCCN3C)nc3c2CCN(c2cccc4cccc(C)c24)C3)CC1CC#N
> 100 nM: IC50 (second compound 0.0316 µM) | IC50 (second compound 0.1 µM) | IC50 (second compound 0.316 µM) | IC50 (second compound 1 µM)
< 0.316 nM: IC50 (second compound 3.16 µM)
inactive: viability, T/C [1] 108% | viability, T/C [2] 92.2% | viability, T/C [3] 81.8% | viability, T/C [4] 72.4% | viability, T/C [5] 66% | viability, T/C [26] 66.8% | viability, T/C [6] 97.2% | viability, T/C [7] 93.8% | viability, T/C [8] 89.6% | viability, T/C [9] 64.7% | viability, T/C [10] 72.4% | viability, T/C [27] 61.8% | viability, T/C [11] 99.9% | viability, T/C [12] 92.2% | viability, T/C [13] 91% | viability, T/C [14] 78.7% | viability, T/C [15] 68% | viability, T/C [28] 67.6% | viability, T/C [16] 91.9% | viability, T/C [17] 93.4% | viability, T/C [18] 81.3% | viability, T/C [19] 63.4% | viability, T/C [20] 64.1% | viability, T/C [29] 64.5% | viability, T/C [21] 48.5% | viability, T/C [22] 32.9% | viability, T/C [23] 15.2% | viability, T/C [24] 12.7% | viability, T/C [25] 12.8% | viability, T/C [30] 23.1%

COC(=O)c1ccc2c(C(=Nc3ccc(N(C)C(=O)CN4CCN(C)CC4)cc3)c3ccccc3)c(O)[nH]c2c1 + C=CC(=O)N1CCN(c2nc(OCC3CCCN3C)nc3c2CCN(c2cccc4cccc(C)c24)C3)CC1CC#N
active: viability, T/C (second compound 0.0316 µM, first compound 10 µM) 0.2% | viability, T/C (second compound 0.1 µM, first compound 10 µM) 1.53% | viability, T/C (second compound 0.316 µM, first compound 10 µM) 1.91% | viability, T/C (second compound 1 µM, first compound 10 µM) 1.01% | viability, T/C (second compound 3.16 µM, first compound 3.16 µM) 1.1% | viability, T/C (second compound 3.16 µM, first compound 10 µM) 0.76%
inactive: viability, T/C [5] 96.2% | viability, T/C [26] 110% | viability, T/C (second compound 0.0316 µM, first compound 0.316 µM) 116% | viability, T/C (second compound 0.0316 µM, first compound 1 µM) 123% | viability, T/C (second compound 0.0316 µM, first compound 3.16 µM) 48.8% | viability, T/C [10] 91.8% | viability, T/C [27] 116% | viability, T/C (second compound 0.1 µM, first compound 0.316 µM) 102% | viability, T/C (second compound 0.1 µM, first compound 1 µM) 111% | viability, T/C (second compound 0.1 µM, first compound 3.16 µM) 44.3% | viability, T/C [15] 79.7% | viability, T/C [28] 102% | viability, T/C (second compound 0.316 µM, first compound 0.316 µM) 103% | viability, T/C (second compound 0.316 µM, first compound 1 µM) 106% | viability, T/C (second compound 0.316 µM, first compound 3.16 µM) 45.1% | viability, T/C [20] 74.3% | viability, T/C [29] 75.5% | viability, T/C (second compound 1 µM, first compound 0.316 µM) 90.2% | viability, T/C (second compound 1 µM, first compound 1 µM) 95.4% | viability, T/C (second compound 1 µM, first compound 3.16 µM) 19.1% | viability, T/C [25] 36.9% | viability, T/C [30] 31.4% | viability, T/C (second compound 3.16 µM, first compound 0.316 µM) 37.8% | viability, T/C (second compound 3.16 µM, first compound 1 µM) 5.71%
1830 nM: IC50 (second compound 1 µM)
2840 nM: IC50 (second compound 0.1 µM) | IC50 (second compound 0.316 µM)
3090 nM: IC50 (second compound 0.0316 µM)
< 31.6 nM: IC50 (second compound 3.16 µM)
